pKi: −log10 of the molar value.
Molecular target: Bcl-2-like protein 1 (Homo sapiens, UniProt Q07817)
Assay: Fluorescence Polarization Assay
Details: pH 7.4; 25 °C
Method: Fluorescence polarization experiments were conducted on a Photon Technology International instrument using a 0.3 cm path length cuvette. Spectra were measured at 25 deg C using 10.0 nm slit widths. Excitation at 495 nm was used for the fluorescein-containing peptide Fl-Bak and the emission maximum at 535 nm was monitored. Polarization measurements were recorded upon titration of inhibitors at varying concentrations into a solution of Fl-Bak and Bcl-xL. Regression analysis was carried out using SigmaPlot 2001 (Systat Co.) ligand binding macro module. Experimental data were fitted to determine the IC50 values, which can be related to the known affinity of the 16-mer Bak peptide (Kd =120 nM) to acquire the inhibitory constant Ki.

Sequence of Bcl-2-like protein 1 (Q07817 whole entry): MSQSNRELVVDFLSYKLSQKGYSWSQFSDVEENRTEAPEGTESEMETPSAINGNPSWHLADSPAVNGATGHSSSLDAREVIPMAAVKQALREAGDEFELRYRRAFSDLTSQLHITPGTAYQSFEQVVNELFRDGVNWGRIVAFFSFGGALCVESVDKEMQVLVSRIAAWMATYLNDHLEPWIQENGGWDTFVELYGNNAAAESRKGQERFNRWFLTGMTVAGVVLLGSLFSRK

SMILES	pKi
COC(=O)CCc1ccc(-c2ccc(-c3ccc(OCC(=O)OC)cc3)cc2)cc1 [terphenyl scaffold, 22]	< 4.52
CC(C)Cc1cc(-c2ccc(-c3ccc(CCC(=O)O)cc3CC(C)C)cc2Cc2ccc3ccccc3c2)ccc1OCC(=O)O [terphenyl scaffold, 17]	5.60
CCc1cc(-c2ccc(OCC(=O)O)cc2C(C)C)ccc1-c1cccc(Cc2cccc3ccccc23)c1	5.16
Cc1cc(CCC(=O)O)ccc1-c1cc(C)c(-c2ccc(OCC(=O)O)c(Cc3ccccc3)c2)c(C)c1 [terphenyl scaffold, 20]	5.63
CCc1cc(-c2ccc(OCC(=O)O)cc2C(C)C)ccc1-c1cccc(Cc2ccccc2)c1 [terphenyl scaffold, 28]	5.49
CC(C)Cc1cc(-c2ccc(-c3ccc(CCC(=O)O)cc3CC(C)C)cc2C(C)C)ccc1OCC(=O)O [terphenyl scaffold, 15]	5.68
Cc1cc(CCC(=O)O)ccc1-c1cc(C)c(-c2ccc(OCC(=O)O)c(Cc3ccccc3)c2)c(CCC(=O)O)c1 [terphenyl scaffold, 21]	< 4.52
CC(C)Cc1cc(OCC(=O)O)ccc1-c1ccc(-c2cccc(C(C)C)c2)c(CC(C)C)c1 [terphenyl scaffold, 27]	5.32
CC(C)Cc1cc(CCC(=O)O)ccc1-c1ccc(-c2ccc(OCC(=O)O)c(Cc3ccccc3)c2)c(Cc2ccccc2)c1 [terphenyl scaffold, 18]	5.56
Cc1cc(OCC(=O)O)ccc1-c1ccc(-c2cccc(C(C)C)c2)c(C)c1 [terphenyl scaffold, 26]	4.98
O=C(O)COc1ccc(-c2ccc(-c3ccccc3)cc2)cc1 [terphenyl scaffold, 30]	< 4.52
CC(C)Cc1cc(-c2ccc(-c3ccc(CCCN)cc3CC(C)C)cc2C(C)C)ccc1OCCN [terphenyl scaffold, 24]	4.87
CC(C)Cc1cc(CCC(=O)O)ccc1-c1ccc(-c2ccc(OCC(=O)O)c(Cc3cccc4ccccc34)c2)c(CC(C)C)c1 [terphenyl scaffold, 19]	5.57
Cc1cccc(-c2ccc(-c3ccc(OCC(=O)O)cc3C)cc2C)c1 [terphenyl scaffold, 25]	4.74
CC(C)Cc1cc(-c2ccc(-c3ccc(CCC(=O)O)cc3CC(C)C)cc2Cc2ccccc2)ccc1OCC(=O)O [terphenyl scaffold, 16]	5.74
CC(C)Cc1cc(-c2ccc(-c3ccc(CCC(=O)O)cc3CC(C)C)cc2Cc2cccc3ccccc23)ccc1OCC(=O)O [terphenyl scaffold, 14]	6.94

From BindingDB's records for doi:10.1021/ja050122x (Yale University, 2005)
